Measurements reported in PubChem BioAssay AID330 (DTP/NCI, 2004).
Values joined by “and” are separate entries in the source; they are usually repeats but may differ in a detail not shown here. Equal values may be shown once. Inconclusive results and toxic doses are left out. The calls were made as follows: active = survival T/C of 150% or more; inactive = T/C below 125% in these data.

System: P388 leukemia ip, CD2F1 mice, survival T/C
Test: NCI In Vivo Anticancer Drug Screen. Data for tumor model P388 Leukemia (intraperitoneal) in CD2F1 (CDF1) mice
Details: endpoint: median survival time, higher = longer survival
How it was run: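 Mice carrying the transplanted tumor received test compound or vehicle. Survival was recorded in each group, and the value is the treated-group measurement divided by that of the vehicle-treated control group.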

[1] = dose: 50.0 mg/kg/injection, schedule: Q01DX005 (ip), vehicle: saline
[2] = dose: 12.5 mg/kg/injection, schedule: Q01DX005 (ip), vehicle: saline with Tween-80
[3] = dose: 25.0 mg/kg/injection, schedule: Q01DX005 (ip), vehicle: saline with Tween-80
[4] = dose: 50.0 mg/kg/injection, schedule: Q01DX005 (ip), vehicle: saline with Tween-80
[5] = dose: 50.0 mg/kg/injection, schedule: Q01DX005 (ip), vehicle: Klucel (hydroxypropylcellulose) (HPC)
[6] = dose: 100.0 mg/kg/injection, schedule: Q01DX005 (ip), vehicle: Klucel (hydroxypropylcellulose) (HPC)
[7] = dose: 200.0 mg/kg/injection, schedule: Q01DX005 (ip), vehicle: Klucel (hydroxypropylcellulose) (HPC)
[8] = dose: 100.0 mg/kg/injection, schedule: Q04DX003 (ip), vehicle: saline with Tween-80
[9] = dose: 200.0 mg/kg/injection, schedule: Q04DX003 (ip), vehicle: saline with Tween-80
[10] = dose: 400.0 mg/kg/injection, schedule: Q04DX003 (ip), vehicle: saline with Tween-80
[11] = dose: 100.0 mg/kg/injection, schedule: Q01DX005 (ip), vehicle: saline with Tween-80
[12] = dose: 200.0 mg/kg/injection, schedule: Q01DX005 (ip), vehicle: saline with Tween-80
[13] = dose: 60.0 mg/kg/injection, schedule: Q01DX005 (ip), vehicle: saline with Tween-80
[14] = dose: 120.0 mg/kg/injection, schedule: Q01DX005 (ip), vehicle: saline with Tween-80
[15] = dose: 100.0 mg/kg/injection, schedule: Q04DX003 (ip), vehicle: Klucel (hydroxypropylcellulose) (HPC)
[16] = dose: 200.0 mg/kg/injection, schedule: Q04DX003 (ip), vehicle: Klucel (hydroxypropylcellulose) (HPC)
[17] = dose: 50.0 mg/kg/injection, schedule: Q01DX009 (ip), vehicle: Klucel (hydroxypropylcellulose) (HPC)
[18] = dose: 100.0 mg/kg/injection, schedule: Q01DX009 (ip), vehicle: Klucel (hydroxypropylcellulose) (HPC)

Measured: T/C

CN(C)CC(CN(C)C)C(=O)c1ccc(Cl)c(Cl)c1
inactive: dose: 12.5 mg/kg/injection, schedule: Q01DX005 (ip), vehicle: saline 108 % of control | dose: 25.0 mg/kg/injection, schedule: Q01DX005 (ip), vehicle: saline 105 % of control | [1] 100 % of control and 104 % of control

O=[N+]([O-])c1ccc(-c2csc(Nc3ccccn3)n2)o1
inactive: [2] 95 % of control | [3] 99 % of control | [4] 88 % of control and 92 % of control

c1ccc2c3cc(cc2c1)OCCOCCOCCOc1ccc2ccccc2c1-c1c(ccc2ccccc12)OCCOCCOc1ccc2ccccc2c1-3
inactive: dose: 100.0 mg/kg/injection, schedule: Q01DX001 (ip), vehicle: saline with Tween-80 97 % of control | dose: 200.0 mg/kg/injection, schedule: Q01DX001 (ip), vehicle: saline with Tween-80 94 % of control

O=C(NC(Cc1ccc(I)cc1)C(=O)O)c1ccc(I)cc1 (stereo not drawn)
inactive: [5] 96 % of control | [6] 104 % of control | [7] 104 % of control

CNC(=O)OCc1onc(-c2ccccc2)c1COC(=O)NC
inactive: dose: 12.5 mg/kg/injection, schedule: Q01DX005 (ip), vehicle: distilled water + Tween-80 98 % of control | dose: 25.0 mg/kg/injection, schedule: Q01DX005 (ip), vehicle: distilled water + Tween-80 100 % of control | dose: 50.0 mg/kg/injection, schedule: Q01DX005 (ip), vehicle: distilled water + Tween-80 98 % of control | dose: 100.0 mg/kg/injection, schedule: Q01DX005 (ip), vehicle: distilled water + Tween-80 100 % of control | dose: 200.0 mg/kg/injection, schedule: Q01DX005 (ip), vehicle: distilled water + Tween-80 98 % of control

C=CCCCCCCCCC(=O)NN1CCOCC1
inactive: [8] 95 % of control | [9] 100 % of control | [10] 86 % of control

N#Cc1ccc(C(N)=O)c(C(N)=O)c1
inactive: [4] 98 % of control | [11] 102 % of control | [12] 93 % of control

O=C(Nc1ccc(F)cc1)ON=C1CCCCC1
inactive: [13] 92 % of control | [14] 97 % of control | dose: 240.0 mg/kg/injection, schedule: Q01DX005 (ip), vehicle: saline with Tween-80 90 % of control

CN(C)c1nc(=O)c2c(o1)CC(C)(C)C2
inactive: [15] 110 % of control | [16] 109 % of control | dose: 400.0 mg/kg/injection, schedule: Q04DX003 (ip), vehicle: Klucel (hydroxypropylcellulose) (HPC) 90 % of control

CCC(O)C(C[N+](=O)[O-])C(=O)OC (stereo not drawn)
inactive: [1] 109 % of control | dose: 100.0 mg/kg/injection, schedule: Q01DX005 (ip), vehicle: saline 107 % of control | dose: 200.0 mg/kg/injection, schedule: Q01DX005 (ip), vehicle: saline 102 % of control

C=CCn1c(=O)c2[nH]c(Cl)nc2n(CC=C)c1=O
inactive: dose: 25.0 mg/kg/injection, schedule: Q01DX009 (ip), vehicle: Klucel (hydroxypropylcellulose) (HPC) 105 % of control | [17] 100 % of control | [18] 108 % of control

CC12CCC3C(CCC4C(C)(C)C(O)CCC34C)(C1)OC2CO (stereo not drawn)
inactive: dose: 2.25 mg/kg/injection, schedule: Q01DX009 (ip), vehicle: Klucel (hydroxypropylcellulose) (HPC) 104 % of control | dose: 4.5 mg/kg/injection, schedule: Q01DX009 (ip), vehicle: Klucel (hydroxypropylcellulose) (HPC) 108 % of control | dose: 9.0 mg/kg/injection, schedule: Q01DX009 (ip), vehicle: Klucel (hydroxypropylcellulose) (HPC) 104 % of control | dose: 18.0 mg/kg/injection, schedule: Q01DX009 (ip), vehicle: Klucel (hydroxypropylcellulose) (HPC) 118 % of control

Clc1cc(Cl)nc(N2CCCCC2)n1
inactive: dose: 25.0 mg/kg/injection, schedule: Q04DX003 (ip), vehicle: Klucel (hydroxypropylcellulose) (HPC) 105 % of control | dose: 50.0 mg/kg/injection, schedule: Q04DX003 (ip), vehicle: Klucel (hydroxypropylcellulose) (HPC) 102 % of control | [15] 100 % of control | [16] 105 % of control

NNC(=O)COc1ccc(Br)cc1Br
inactive: [13] 95 % of control | [14] 97 % of control

O=C(O)c1cccnc1C(=O)O
inactive: dose: 50.0 mg/kg/injection, schedule: Q01DX009 (ip), vehicle: saline 105 % of control | dose: 100.0 mg/kg/injection, schedule: Q01DX009 (ip), vehicle: saline 96 % of control and 100 % of control and 111 % of control | dose: 200.0 mg/kg/injection, schedule: Q01DX009 (ip), vehicle: saline 86 % of control and 102 % of control and 97 % of control | dose: 400.0 mg/kg/injection, schedule: Q01DX009 (ip), vehicle: saline 100 % of control and 90 % of control

O=C(Oc1c(OC(=O)c2ccccc2)c(OC(=O)c2ccccc2)c(OC(=O)c2ccccc2)c(OC(=O)c2ccccc2)c1OC(=O)c1ccccc1)c1ccccc1
inactive: dose: 100.0 mg/kg/injection, schedule: Q04DX002 (ip), vehicle: saline with Tween-80 107 % of control | dose: 200.0 mg/kg/injection, schedule: Q04DX002 (ip), vehicle: saline with Tween-80 94 % of control | dose: 400.0 mg/kg/injection, schedule: Q04DX002 (ip), vehicle: saline with Tween-80 89 % of control

COC/C(=N/Nc1ccc([N+](=O)[O-])cc1[N+](=O)[O-])c1ccccc1
inactive: [8] 109 % of control | [9] 109 % of control | [10] 90 % of control

CCOC(=O)C(SC(S(=O)(=O)c1ccccc1)S(=O)(=O)c1ccccc1)C(=O)OCC
inactive: [17] 98 % of control | [18] 90 % of control | dose: 200.0 mg/kg/injection, schedule: Q01DX009 (ip), vehicle: Klucel (hydroxypropylcellulose) (HPC) 90 % of control

CCCCCN(CCCCC)C(C)C(=O)c1ccc(Cl)cc1 (stereo not drawn)
inactive: [5] 100 % of control | [6] 100 % of control | [7] 100 % of control

Nc1ccc(S(=O)(=O)Nc2ccccc2O)cc1
inactive: dose: 3.12 mg/kg/injection, schedule: Q01DX001 (ip), vehicle: saline with Tween-80 99 % of control | dose: 6.25 mg/kg/injection, schedule: Q01DX001 (ip), vehicle: saline with Tween-80 106 % of control | dose: 12.5 mg/kg/injection, schedule: Q01DX001 (ip), vehicle: saline with Tween-80 97 % of control | dose: 25.0 mg/kg/injection, schedule: Q01DX001 (ip), vehicle: saline with Tween-80 94 % of control | dose: 50.0 mg/kg/injection, schedule: Q01DX001 (ip), vehicle: saline with Tween-80 100 % of control

S=c1[nH]c(=S)c2[nH]c(=S)[nH]c2[nH]1
inactive: [2] 92 % of control | [3] 96 % of control | [4] 90 % of control and 95 % of control | [12] 89 % of control

N#C/C(=N\NC(=O)c1cccs1)c1ccccc1Cl
inactive: [4] 93 % of control | [11] 103 % of control | [12] 106 % of control

CN=C(N)NCCCCCCCCNC(N)=NC
inactive: dose: 3.13 mg/kg/injection, schedule: Q01DX009 (ip), vehicle: saline with Tween-80 112 % of control | dose: 3.13 mg/kg/injection, schedule: Q01DX009 (ip), vehicle: saline 124 % of control | dose: 6.25 mg/kg/injection, schedule: Q01DX009 (ip), vehicle: saline with Tween-80 109 % of control | dose: 6.25 mg/kg/injection, schedule: Q01DX009 (ip), vehicle: saline 109 % of control | dose: 12.5 mg/kg/injection, schedule: Q01DX009 (ip), vehicle: saline with Tween-80 112 % of control | dose: 25.0 mg/kg/injection, schedule: Q01DX009 (ip), vehicle: saline 87 % of control
